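Where inhibition never reached the appropriate level, the endpoint shown equals the highest concentration tested. Otherwise, values were interpolated linearly from a five-concentration, 48-hour dose response in 96-well plates. Here, GI50 denotes the concentration required for 50% inhibition of growth. TGI: concentration producing complete growth inhibition.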
Tests used:
Experiment in all cases: inhibition of tumour cell growth, NCI panel, 48 h; in the data active means GI50 below about 0.43 µM; inactive means the rest
[1] = test system: 786-0 renal
[2] = test system: A498 renal
[3] = test system: A549 NSCLC
[4] = test system: ACHN renal
[5] = test system: BT-549 breast
[6] = test system: CAKI-1 renal
[7] = test system: CCRF-CEM leukemia
[8] = test system: COLO 205 colon
[9] = test system: DU-145 prostate
[10] = test system: EKVX NSCLC
[11] = test system: HCC-2998 colon
[12] = test system: HCT-116 colon
[13] = test system: HCT-15 colon
[14] = test system: HL-60(TB) leukemia
[15] = test system: HOP-62 NSCLC
[16] = test system: HOP-92 NSCLC
[17] = test system: HS 578T breast
[18] = test system: HT29 colon
[19] = test system: IGROV1 ovarian
[20] = test system: K-562 leukemia
[21] = test system: KM12 colon
[22] = test system: LOX IMVI melanoma
[23] = test system: M14 melanoma
[24] = test system: MALME-3M melanoma
[25] = test system: MCF7 breast
[26] = test system: MDA-MB-231 breast
[27] = test system: MDA-MB-435
[28] = test system: MOLT-4 leukemia
[29] = test system: NCI-H226 lung
[30] = test system: NCI-H23 lung
[31] = test system: NCI-H460 lung
[32] = test system: NCI-H522 lung
[33] = test system: NCI/ADR-RES ovarian
[34] = test system: OVCAR-3 ovarian
[35] = test system: OVCAR-4 ovarian
[36] = test system: OVCAR-5 ovarian
[37] = test system: OVCAR-8 ovarian
[38] = test system: PC-3 prostate
[39] = test system: RPMI-8226 leukemia
[40] = test system: RXF 393 renal
[41] = test system: SF-268 CNS
[42] = test system: SF-295 CNS
[43] = test system: SF-539 CNS
[44] = test system: SK-MEL-2 melanoma
[45] = test system: SK-MEL-28 melanoma
[46] = test system: SK-MEL-5 melanoma
[47] = test system: SK-OV-3 ovarian
[48] = test system: SN12C renal
[49] = test system: SNB-19 CNS
[50] = test system: SNB-75 CNS
[51] = test system: SR leukemia
[52] = test system: SW-620 colon
[53] = test system: T-47D breast
[54] = test system: TK-10 renal
[55] = test system: U251 CNS
[56] = test system: UACC-257 melanoma
[57] = test system: UACC-62 melanoma
[58] = test system: UO-31 renal

Cc1cncc2cccc(S(=O)(=O)N3CCCNC[C@@H]3C)c12
> 100 µM: TGI [1] | TGI [3] | TGI [4] | TGI [6] | TGI [7] | TGI [9] | TGI [10] | TGI [11] | TGI [12] | TGI [13] | TGI [15] | TGI [16] | TGI [17] | TGI [18] | TGI [19] | TGI [20] | TGI [21] | TGI [23] | TGI [24] | TGI [25] | TGI [27] | TGI [30] | TGI [31] | TGI [32] | TGI [33] | TGI [34] | TGI [35] | TGI [36] | TGI [37] | TGI [38] | TGI [39] | TGI [42] | TGI [44] | TGI [45] | TGI [46] | TGI [47] | TGI [48] | TGI [49] | TGI [52] | TGI [53] | TGI [55] | TGI [56] | TGI [57]
74.2 µM: TGI [26]
100 µM: TGI [14]
84.4 µM: TGI [54]
19.8 µM: TGI [40]
inactive: GI50 [1] 14.6 µM | GI50 [2] 1.61 µM | GI50 [3] 14.6 µM | GI50 [4] 14.2 µM | GI50 [5] 4.04 µM | GI50 [6] 5.91 µM | GI50 [7] 20.3 µM | GI50 [8] 2.85 µM | GI50 [9] 36.1 µM | GI50 [10] 47.4 µM | GI50 [11] > 88.9 µM | GI50 [12] 7.56 µM | GI50 [13] 16.3 µM | GI50 [14] 36.2 µM | GI50 [15] 11.5 µM | GI50 [17] 1.51 µM | GI50 [18] 29.3 µM | GI50 [19] 48.8 µM | GI50 [20] 50 µM | GI50 [21] 15.2 µM | GI50 [22] 7.94 µM | GI50 [23] > 93.4 µM | GI50 [24] 99.5 µM | GI50 [25] 11.5 µM | GI50 [26] 14.1 µM | GI50 [27] > 100 µM | GI50 [28] 20.7 µM | GI50 [29] 2 µM | GI50 [30] 31.5 µM | GI50 [31] 8.81 µM | GI50 [32] > 23.1 µM | GI50 [33] 25.4 µM | GI50 [34] 58.9 µM | GI50 [35] > 100 µM | GI50 [36] 17.1 µM | GI50 [37] 38.9 µM | GI50 [38] 44.3 µM | GI50 [39] 42.8 µM | GI50 [40] 1.82 µM | GI50 [41] 4.91 µM | GI50 [42] 4.46 µM | GI50 [43] 3.17 µM | GI50 [44] 61 µM | GI50 [45] > 100 µM | GI50 [46] > 64.1 µM | GI50 [47] 24 µM | GI50 [48] 24.8 µM | GI50 [49] 46.2 µM | GI50 [51] 3.55 µM | GI50 [52] 8.06 µM | GI50 [53] > 80.3 µM | GI50 [54] 9.18 µM | GI50 [55] 57.2 µM | GI50 [56] > 100 µM | GI50 [57] > 47 µM | GI50 [58] 2.16 µM
46.1 µM: TGI [29]
23.8 µM: TGI [58]
6.52 µM: TGI [50]
> 56.7 µM: TGI [43]
> 81.8 µM: TGI [41]
35.9 µM: TGI [5]
87 µM: TGI [22]
active: GI50 [16] 0.108 µM | GI50 [50] 0.214 µM
> 91.2 µM: TGI [51]
18.8 µM: TGI [8]
> 96.3 µM: TGI [28]
17.7 µM: TGI [2]
